Legend:
[1] = system: GPR83 and GPR83del (HEK293 and U2OS clones; wild-type cells as comparison); assay: Ligand-dependent cAMP formation; assay type: cell-based, human
Description: Production of cyclic adenosine monophosphate (cAMP) is a hallmark of GPCRs signaling via the Gs-induced pathway. To investigate the potential of PEN to stimulate cAMP production mediated by GPR83, levels of the second messenger were determined after incubation with PEN of various GPR83-overexpressing clones as well as wild-type HEK293 and U2OS cells.
Figure 3 Analysis of ligand-dependent, GPR83-mediated cAMP production. (A) Wild-type HEK293 and U2OS cells as well as various clones with confirmed overexpression of either GPR83 or the deletion variant GPR83del (both ± HA tag) were incubated with either buffer, 1 µM PEN, or 50 µM forskolin. (B) Selected GPR83-overexpressing HEK293 clones were assayed for cAMP production using different concentrations of PEN. (C) Selected GPR83-overexpressing U2OS clones were assayed for cAMP production using different concentrations of PEN.
To measure intracellular cAMP production, the LANCE Ultra cAMP kit (Perkin Elmer) was used according to the manufacturer’s instructions. The day before the experiment, cells were seeded onto a 96-well plate with approximately 80% confluence. After 16–24 h, the medium was removed, and 100 μL/well of serum-free medium was added, followed by a 3 h incubation. Thereafter, medium was removed, and 40 μL of ligand dissolved in cAMP stimulation buffer was pipetted onto cells, then incubated for 10 min. The ligands used were pipetted in duplicate. For concentration–response curves, serial dilutions were carried out from the stock solutions of 1 mM to create a concentration range from 1 µM to 30 pM. As controls, 4 wells were treated with buffer only (negative control) and 4 wells with 50 μM forskolin (positive control). After a 10 min incubation, 10 μL of a 0.5% Triton-X 100 solution in PBS was added to each well. To lyse cells, the plate was shaken on a Vibramax 100 Shaker (Heidolph, Kelheim, Germany) (750 rpm) at room temperature for 10 min. A 10 μL volume of the cell lysates were transferred into a white 384 well plate (ProxiPlate, PerkinElmer). A 5 μL volume of the Europium-cAMP tracer (1 to 50 dilution of Eu-tracer stock in cAMP detection buffer) was added to each well. Next, 5 μL of the ULight-anti-cAMP solution (1 to 150 dilution of ULight-tracer stock in cAMP detection buffer) was added to each well. After a 1 h incubation period at room temperature in the dark, the TR-FRET signal was measured using an EnVision 2103 Multilabel Reader (Perkin Elmer).

[2] = system: GPR83; conditions: cited from earlier work
From the text: G protein-coupled receptor 83 (GPR83), also termed glucocorticoid-induced receptor (GIR), GPR72, KIAA1540, or JP05, is a class A G protein-coupled receptor with predominant expression in the […] and proposed function in the regulation of food intake and in anxiety-like behavior [1, 2, 3]. […] A potential role of GPR83 in regulatory T cell development and function has not been confirmed. […] The present study was initiated to evaluate PEN as a ligand of GPR83. […] While one end of the peptide may be crucial for binding the receptor, an absolute requirement of both peptide termini to be free of another ...

[3] = system: HEK293 cells; conditions: some batches of HEK293 cells; ref [10]; cited from earlier work
From the text: (§1) While the earlier study employed CHO cells from Cricetulus griseus and Neuro2A cells from Mus musculus overexpressing human GPR83 [10], this study used human HEK293 and U2OS c ...

[4] = system: GPR83 (CHO and Neuro2A cells); conditions: CHO and Neuro2A cells overexpressing human GPR83; ref [10]; cited from earlier work
From the text: as §1

AADHDVGSELPPEGVLGALLRV [PEN, batch #1 synthesized, batch #2 purchased from Phoenix Pharmaceuticals]
cAMP levels ([1]; 1 µM PEN or 50 µM forskolin, GPR83-overexpressing clones and wild-type HEK293 and U2OS cells, 10 min incubation, LANCE Ultra cAMP kit, TR-FRET competition, duplicate): did not change it | cAMP formation, concentration-response ([1]; titration 50 pM to 1 µM, selected GPR83-expressing HEK293 and U2OS clones, LANCE Ultra cAMP kit, TR-FRET, 10 min incubation, duplicate): did not indicate PEN-dependent cAMP formation | increased (via Gs) or decreased (via Gi) production of cAMP ([1]; up to 1 µM PEN, multiple clones of GPR83-overexpressing HEK293 and U2OS cells): did not reveal any evidence for an increased (via Gs) or decreased (via Gi) production of cAMP | ligand for GPR83 ([2]; 2016 proposal, ref [10]): serves as a distinct ligand for GPR83 | GPR83 ligand and agonist ([2]; comparative evaluation, multiple assay systems, ref [16]): not PEN | activation of GPR83 ([2]; independent reports from two other labs, ref [12],[13]): supported activation of GPR83 by PEN | response of HEK293 cells [3]: had not responded to PEN | GPR83-mediated cAMP signaling [4]: Modification of GPR83-mediated cAMP signaling by PEN has been previously reported

— paper PMC10606834, “Is the Neuropeptide PEN a Ligand of GPR83?” (International Journal of Molecular Sciences, 2023)
